{"source": "paper PMC4023971", "about": "“Targeting Prolyl Endopeptidase with Valproic Acid as a Potential Modulator of Neutrophilic Inflammation” (PLoS ONE, 2014)", "target": "T1, prolyl endopeptidase (PE, rhPE) (Homo sapiens, UniProt P48147)", "T1 construct": "gene PREP; recombinant human PE expressed in E. coli from plasmid pTrcHis PE", "T1 sequence (P48147 1-710)": "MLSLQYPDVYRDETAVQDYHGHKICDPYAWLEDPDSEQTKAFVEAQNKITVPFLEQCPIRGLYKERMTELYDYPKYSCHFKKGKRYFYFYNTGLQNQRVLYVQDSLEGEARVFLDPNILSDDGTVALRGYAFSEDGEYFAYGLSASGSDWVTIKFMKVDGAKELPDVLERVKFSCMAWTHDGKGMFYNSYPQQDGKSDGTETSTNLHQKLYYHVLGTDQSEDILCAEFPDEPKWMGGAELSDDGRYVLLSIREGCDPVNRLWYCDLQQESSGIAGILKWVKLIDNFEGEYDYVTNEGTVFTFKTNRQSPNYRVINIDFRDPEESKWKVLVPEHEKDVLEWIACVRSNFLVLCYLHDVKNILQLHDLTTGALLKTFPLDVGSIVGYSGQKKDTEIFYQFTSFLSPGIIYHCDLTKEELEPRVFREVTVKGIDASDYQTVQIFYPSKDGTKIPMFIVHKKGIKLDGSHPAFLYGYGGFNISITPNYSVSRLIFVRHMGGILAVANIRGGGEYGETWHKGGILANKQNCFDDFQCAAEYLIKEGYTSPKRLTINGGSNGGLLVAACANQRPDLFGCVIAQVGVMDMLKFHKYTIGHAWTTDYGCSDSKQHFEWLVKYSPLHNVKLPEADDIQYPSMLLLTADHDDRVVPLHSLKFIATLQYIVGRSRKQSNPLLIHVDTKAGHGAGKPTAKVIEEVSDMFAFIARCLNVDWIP", "assay": "purified rhPE activity assay (Suc-Gly-Pro-AMC fluorescence / Suc-Gly-Pro-pNA UV-vis, Lineweaver-Burk); supported by CD and NMR competition with ZPP", "format": "biochemical", "data": [{"smiles": "CCCC(CCC)C(=O)O", "note": "[VPA, Valproic acid]", "values": [{"measurement": "Ki", "value": "1 to 2", "unit": "mM"}]}]}
